# Laboratory results: patent publication US7083969B2, “Serratia marcescens strain” (Korea Research Institute of Bioscience and Biotechnology, priority 1997, dated 2006)
# Key:
# B lymphocyte = assay: Lipopolysaccharide-induced B lymphocyte proliferation (DNA synthesis); type: cell-based, mice; details: for Proliferation (%) B cell: three days
# Excerpt: (§1) Germ-free test animals, mice BDF1 and B6C3F1, obtained from Genetic Resources Center, Korean Research Institute of Bioscience and Biotechnology in the Korean Institute of Science and Technology, were used for the assay of the immunosuppressive activity of prodigiosin. […] At such concentrations as show no cytotoxic effects, prodigiosin cannot suppress the immune response of B lymphocytes. […] This selective immunosuppression for T lymphocytes is not ascribed to the selective cytotoxicity for T lymphocytes. The same immunosuppression results as in the ex vivo experiments were obtained in in vivo experiments. When T lymphocyte activity was measured by use of a graft versus host reaction and a T cell-dependent antibody producing reaction, the prodigiosin suppressed the immune response, but exerted no toxicity on animals. Therefore, the immunosuppressive activity of the prodigiosin is thought to be attributed to the selective suppression for T lymphocyte activity.
# Three standard substances which induce lymphocytes to proliferate were employed to measure the effect of the prodigiosin on proliferation of lymphocytes. 5 μg/ml of lipopolysaccharide were used to induce B lymphocyte to proliferate, 5 μg/ml of Concanavalin A for T lymphocyte and 5 μg/ml of Pokeweed mitogen for B and T lymphocytes, both. Prodigiosin was added, together with the proliferation-inducing substance. Three days after the addition, the proliferation effect was monitored by measuring the amount of DNA synthesized. In order to exclude the cytotoxicity of prodigiosin, it was used at a concentration of not more than 100 nM. In Table 2, the proliferation percentages mean the proliferated amounts of prodigiosin-treated lymphocytes relative to that of an non-treated group. As shown, the suppression percentage effected by prodigiosin in amounts of 30–100 nM reaches up to 96–98% for the T lymphocyte induced by concanavalin A while the proliferation of B lymphocyte induced by lipopolysaccharide and the proliferation of B/T lymphocytes induced by pokeweed mitogen are suppressed to the extent of 13–19% and 45–83%, respectively.
# [1] = Viability of spleen immune cells cultured in vitro (cytotoxicity); type: cell-based, mice; details: mouse, immune cells separated from the spleen, cultured in vitro
# Excerpt: as §1
# Immune cells were separated from the spleens of the germ-free animals and cultured in vitro. The cultures were treated with the prodigiosin at various amounts from 3 nM to 30,000 nM and the viability of the cells were measured from the first day to the third day after the treatment. Based on the initial viability of the immune cells, the viabilities of the test groups were calculated. […] So, subsequent experiments for immunoactivity were carried out at not more than 100 nM in order to exclude the cytotoxicity and to measure only the immunosuppressive effect of the prodigiosin.
# [2] = Body weight of injected mice in graft versus host experiment (toxicity); type: in vivo
# Protocol: A graft versus host reaction was utilized for the in vivo assay of prodigiosin's immunosuppression. The graft versus host reaction enables an assessment of the immune response of T lymphocytes. On the sixth day after transplantation of the T lymphocytes of BDF1 mice different in histocompatibility antigen, the lymphatic nodes were measured for weight, thereby assessing the immune response of T lymphocyte to the grafted heteroantigens. The prodigiosin was peritoneally injected at a dose of 30–100 mg per kg of body weight for five days while cyclophosphamide, as a positive control, was peritoneally injected at a dose of 100 mg/kg for five days. The body weights of the injected mice were measured to compare the toxicity of prodigiosin with that of cyclophosphamide. […] As for the body weight, it was not changed in the mice injected with prodigiosin at an effective concentration.
# [3] = Weight ratio of the spleen to the body (toxicity); type: in vivo, mice
# Protocol: (§2) A T cell-dependent immune response reaction was used to assess the influence of prodigiosin on T lymphocytes in vivo. Test animals were immunized with sheep red blood cells by peritoneal injection. 4 days after the immunization, the number of the antibody producing cells was counted. Prodigiosin was peritoneally injected everyday. Based on the number of the […] cells in the non-treated animals, the influence of prodigiosin on T lymphocytes in vivo was assessed as percentage. Also, the weight ratio of the spleen to the body was measured to assay the toxicity of prodigiosin to the animals. Cyclophosphamide was used as a positive control.
# CD8 T lymphocytes = assay: Immunosuppressive activity on CD8 T lymphocytes; type: cell-based
# T lymphocytes = assay: T cell-dependent immune response in vivo (antibody producing cells after sheep red blood cell immunization); design: species or system mice; details: for Immune Response (%): 4 days after immunization
# Excerpt: as §1, §2
# B and T lymphocytes = assay: T-cell dependent antibody producing reaction in vitro (sheep red blood cells); type: cell-based, mice
# Excerpt: as §1
# The influence of prodigiosin on the functions of lymphocytes was measured using three reaction systems. First, the ability of B lymphocyte to proliferate in response to lipopolysaccharide stimulus was assessed. For this, on the third day after stimulation with lipopolysaccharide, the antibody production of the B lymphocyte was measured. When B lymphocytes are stimulated with lipopolysaccharide, they can produce antibodies without the aid of T lymphocyte. Second, a mixed lymphocyte reaction was induced in order to assess the effect on T-cell response. The reaction needs no aids from the B lymphocyte. On the third day after two types of heteroimmune cells, which are different from each other in histocompatibility antigen, were mixed to stimulate the activity of T lymphocytes, the T-cell response-was assessed. Third, the T-cell dependent antibody producing reaction was utilized to assess the effect of prodigiosin on the simultaneous immune response of both of the B and T lymphocytes. This reaction requires the functions of B and T lymphocytes, simultaneously. On the fifth day after immunization of the lymphocytes with the red blood cells of sheep, their antibody production ability was assessed.
# In Table 3, the values are relative to the immune response of the lymphocytes untreated with prodigiosin.
compound,measurement,setting,value
"CCCCCC1=C/C(=C/c2[nH]c(-c3ccc[nH]3)cc2OC)N=C1C [Prodigiosin, prodigiosin]",Proliferation (%) B cell,"B lymphocyte; 3 nM, 5 μg/ml lipopolysaccharide, relative to non-treated group",101%
same,Proliferation (%) B cell,"B lymphocyte; 10 nM, lipopolysaccharide",105%
same,Proliferation (%) B cell,"B lymphocyte; 30 nM, lipopolysaccharide",87%
same,Proliferation (%) B cell,"B lymphocyte; 100 nM, lipopolysaccharide",81%
same,suppression of proliferation of B lymphocyte induced by lipopolysaccharide,B lymphocyte; 30–100 nM,13–19%
same,effect on proliferation of B lymphocytes,B lymphocyte; non-cytotoxic concentrations,no influence
same,"viability at 1 day, 0.003 µM","[1]; 3 nM, 1st day after treatment, based on initial viability",96%
same,"viability at 2 day, 0.003 µM","[1]; 3 nM, 2nd day after treatment, based on initial viability",86%
same,"viability at 3 day, 0.003 µM","[1]; 3 nM, 3rd day after treatment, based on initial viability",79%
same,"viability at 1 day, 0.01 µM","[1]; 10 nM, 1st day",89%
same,"viability at 2 day, 0.01 µM","[1]; 10 nM, 2nd day",82%
same,"viability at 3 day, 0.01 µM","[1]; 10 nM, 3rd day",79%
same,"viability at 1 day, 0.03 µM","[1]; 30 nM, 1st day",89%
same,"viability at 2 day, 0.03 µM","[1]; 30 nM, 2nd day",70%
same,"viability at 3 day, 0.03 µM","[1]; 30 nM, 3rd day",81%
same,"viability at 1 day, 0.1 µM","[1]; 100 nM, 1st day",82%
same,"viability at 2 day, 0.1 µM","[1]; 100 nM, 2nd day",70%
same,"viability at 3 day, 0.1 µM","[1]; 100 nM, 3rd day",70%
same,"viability at 1 day, 0.3 µM","[1]; 300 nM, 1st day",68%
same,"viability at 2 day, 0.3 µM","[1]; 300 nM, 2nd day",14%
same,"viability at 3 day, 0.3 µM","[1]; 300 nM, 3rd day",18%
same,"viability at 1 day, 1000 nM","[1]; 1,000 nM, 1st day",74%
same,"viability at 2 day, 1000 nM","[1]; 1,000 nM, 2nd day",14%
same,"viability at 3 day, 1000 nM","[1]; 1,000 nM, 3rd day",14%
same,"viability at 1 day, 3000 nM","[1]; 3,000 nM, 1st day",61%
same,"viability at 2 day, 3000 nM","[1]; 3,000 nM, 2nd day",9%
same,"viability at 3 day, 3000 nM","[1]; 3,000 nM, 3rd day",8%
same,"viability at 1 day, 10000 nM","[1]; 10,000 nM, 1st day",32%
same,"viability at 2 day, 10000 nM","[1]; 10,000 nM, 2nd day",4%
same,"viability at 3 day, 10000 nM","[1]; 10,000 nM, 3rd day",4%
same,"viability at 1 day, 30000 nM","[1]; 30,000 nM, 1st day",4%
same,"viability at 2 day, 30000 nM","[1]; 30,000 nM, 2nd day",4%
same,"viability at 3 day, 30000 nM","[1]; 30,000 nM, 3rd day",4%
same,Body weight,[2]; 10 mg/kg peritoneally for five days,20 g
same,Body weight,[2]; 30 mg/kg peritoneally for five days,21 g
same,body weight change,[2]; at an effective concentration,not changed
same,Wt. Ratio of spleen/body (%),[3]; 10 mg/kg peritoneally everyday,95%
same,Wt. Ratio of spleen/body (%),[3]; 30 mg/kg peritoneally everyday,84%
same,toxicity judged by weight ratio of the spleen to the body,[3]; at effective concentrations,no toxicity
same,immunosuppressive activity on CD8 T lymphocytes,CD8 T lymphocytes,has an immunosuppressive activity
same,Immune Response (%),"T lymphocytes; 10 mg/kg peritoneally everyday, antibody producing cells vs non-treated animals",32%
same,Immune Response (%),T lymphocytes; 30 mg/kg peritoneally everyday,27%
same,number of the antibody-producing cells,T lymphocytes; peritoneal injection everyday,significantly reduced
same,Immune Response (%) B/T cells,"B and T lymphocytes; 3 nM, antibody production, fifth day after sheep red blood cells, relative to untreated lymphocytes",81%
same,Immune Response (%) B/T cells,"B and T lymphocytes; 10 nM, fifth day",74%
same,Immune Response (%) B/T cells,"B and T lymphocytes; 30 nM, fifth day",64%
same,Immune Response (%) B/T cells,"B and T lymphocytes; 100 nM, fifth day",34%
